{"source": "patent US11192860B2", "about": "“Co-crystal of an orally available HIF prolyl hydroxylase inhibitor” (Sandoz AG, priority 2017, dated 2021)", "key": {"[1]": {"assay": "Powder dissolution in phosphate buffer pH 6 at 25° C., concentration by HPLC", "assay_type": "physicochemical", "settings": "phosphate buffer pH 6, 25° C.", "method": "Powder dissolution experiments were carried out in phosphate buffer pH 6 at 25° C. for form A of roxadustat and the L-proline co-crystal of the present invention. The respective concentrations were determined by HPLC at a wavelength of 254 nm."}, "[2]": {"assay": "Stability against temperature and moisture (40° C., 75% RH, PXRD)", "assay_type": "physicochemical", "settings": "75% relative humidity, 7 days"}, "[3]": {"assay": "Stability against pressure (IR press, PXRD)", "assay_type": "physicochemical", "settings": "pressed to a pellet at about 100 kN, ground again", "text": "The pellet was ground again in order to obtain a powder, which was then investigated by PXRD."}, "[4]": {"assay": "Stability against mechanical stress (dry grinding, PXRD)", "assay_type": "physicochemical", "settings": "dry ground 20 minutes, 25 vibrations per second", "method": "A 1.5 mL grinding jar with one ball (5 mm diameter) both made of stainless steel was fed with about 70 mg sample and ground for 20 minutes at a frequency of 25 vibrations per second."}, "[5]": {"assay": "Differential scanning calorimetry (thermal stability)", "assay_type": "physicochemical", "settings": "25 to 250° C. at 10 K/min", "method": "The roxadustat L-proline co-crystal according to the present invention was investigated by DSC, which was performed on a Mettler Polymer DSC R instrument. The sample (2.72 mg) was heated in a 40 microliter aluminium pan with a pierced aluminium lid from 25 to 250° C. at a rate of 10 K/min. Nitrogen (purge rate 50 mL/min) was used as purge gas."}, "[6]": {"assay": "Thermogravimetric analysis (mass loss on heating)", "assay_type": "physicochemical", "settings": "10 K/min", "method": "The sample (16.28 mg) was heated in a 100 microliter aluminum pan closed with an aluminum lid. The lid was automatically pierced at the beginning of the measurement. The sample was heated from 25 to 250° C. at a rate of 10 K/min. Nitrogen (purge rate 50 mL/min) was used as purge gas.\nFor example mass losses of only about 0.1 weight % up to a temperature of about 180° C., about 0.2 weight % up to a temperature of about 190° C. and about 0.3 weight % up to a temperature of about 200° C. were observed, which further proves the presence of an anhydrous and non-solvated co-crystal."}, "[7]": {"settings": "FIGS. 4, 6 and 8 of WO 2014/014835 A2; cited from earlier work"}, "[8]": {"settings": "TGA curves of WO 2014/014835 A2; cited from earlier work"}}, "data": [{"smiles": "Cc1nc(C(=O)NCC(=O)O)c(O)c2ccc(Oc3ccccc3)cc12", "note": "[roxadustat L-proline co-crystal]", "values": [{"measurement": "time after which the complex falls apart in aqueous solution into its pure components", "setting": "[1]", "result": "about 5 minutes"}, {"measurement": "Concentration roxadustat (dissolution profile)", "setting": "[1]; 1 min, listed as roxadustat L-prolin co-crystal", "result": 660, "unit": "µg/mL"}, {"measurement": "Concentration roxadustat (dissolution profile)", "setting": "[1]; 5 min, listed as roxadustat L-prolin co-crystal", "result": 30, "unit": "µg/mL"}, {"measurement": "Concentration roxadustat (dissolution profile)", "setting": "[1]; 15 min, listed as roxadustat L-prolin co-crystal", "result": 20, "unit": "µg/mL"}, {"measurement": "Concentration roxadustat (dissolution profile)", "setting": "[1]; 30 min, listed as roxadustat L-prolin co-crystal", "result": 40, "unit": "µg/mL"}, {"measurement": "Concentration roxadustat (dissolution profile)", "setting": "[1]; 60 min, listed as roxadustat L-prolin co-crystal", "result": 100, "unit": "µg/mL"}, {"measurement": "Concentration roxadustat (dissolution profile)", "setting": "[1]; 180 min, listed as roxadustat L-prolin co-crystal", "result": 90, "unit": "µg/mL"}, {"measurement": "phase changes according to powder X-ray diffraction", "setting": "[2]", "result": "no phase changes occurred"}, {"measurement": "phase changes according to powder X-ray diffraction", "setting": "[3]", "result": "no phase changes occured"}, {"measurement": "phase changes according to powder X-ray diffraction", "setting": "[4]", "result": "no phase changes occured"}, {"measurement": "thermal events in DSC until melting", "setting": "[5]", "result": "neither phase changes nor desolvation events are detectable until the sample melts"}, {"measurement": "TGA mass loss", "setting": "[6]; up to about 180° C.", "result": "about 0.1 weight %"}, {"measurement": "TGA mass loss", "setting": "[6]; up to about 190° C.", "result": "about 0.2 weight %"}, {"measurement": "TGA mass loss", "setting": "[6]; up to about 200° C.", "result": "about 0.3 weight %"}]}, {"smiles": "Cc1nc(C(=O)NCC(=O)O)c(O)c2ccc(Oc3ccccc3)cc12", "note": "[roxadustat form A, [(4-hydroxy-1-methyl-7-phenoxyisoquinoline-3-carbonyl)amino]acetic acid, reference compound]", "values": [{"measurement": "Concentration roxadustat (dissolution profile)", "setting": "[1]; 1 min", "result": 30, "unit": "µg/mL"}, {"measurement": "Concentration roxadustat (dissolution profile)", "setting": "[1]; 5 min", "result": 50, "unit": "µg/mL"}, {"measurement": "Concentration roxadustat (dissolution profile)", "setting": "[1]; 15 min", "result": 60, "unit": "µg/mL"}, {"measurement": "Concentration roxadustat (dissolution profile)", "setting": "[1]; 30 min", "result": 50, "unit": "µg/mL"}, {"measurement": "Concentration roxadustat (dissolution profile)", "setting": "[1]; 60 min", "result": 60, "unit": "µg/mL"}, {"measurement": "Concentration roxadustat (dissolution profile)", "setting": "[1]; 180 min", "result": 70, "unit": "µg/mL"}]}, {"smiles": "Cc1nc(C(=O)NCC(=O)O)c(O)c2ccc(Oc3ccccc3)cc12.Cc1nc(C(=O)NCC(=O)O)c(O)c2ccc(Oc3ccccc3)cc12.O", "note": "[form B]", "values": [{"measurement": "phase transformation during DSC experiments", "setting": "[7]", "result": "at least partially transform to form A"}, {"measurement": "solvent/water loss upon heating (TGA)", "setting": "[8]", "result": "readily lose their solvents/water upon heating"}]}]}
